In patent US20250215029A1 (Recludix Pharma, Inc., priority 2022, published 2025):
pIC50: −log10 of the molar value.

How the values were obtained:
[1] = target: T1, Recombinant STAT6 protein (STAT6 (W123-T658)) (Homo sapiens, UniProt P42226); test: STAT6 Fluorescence Polarization (FP) Assay; assay type: binding; conditions: STAT6 (W123-T658) 250 nM, probe 5-FAM-Ap[…]-NH2 2 nM, 45-minute incubation; read-out: STAT6 (FP assay IC50 class)
T1 construct: Recombinant STAT6 protein (STAT6 (W123-T658))
T1 sequence (P42226 123-658): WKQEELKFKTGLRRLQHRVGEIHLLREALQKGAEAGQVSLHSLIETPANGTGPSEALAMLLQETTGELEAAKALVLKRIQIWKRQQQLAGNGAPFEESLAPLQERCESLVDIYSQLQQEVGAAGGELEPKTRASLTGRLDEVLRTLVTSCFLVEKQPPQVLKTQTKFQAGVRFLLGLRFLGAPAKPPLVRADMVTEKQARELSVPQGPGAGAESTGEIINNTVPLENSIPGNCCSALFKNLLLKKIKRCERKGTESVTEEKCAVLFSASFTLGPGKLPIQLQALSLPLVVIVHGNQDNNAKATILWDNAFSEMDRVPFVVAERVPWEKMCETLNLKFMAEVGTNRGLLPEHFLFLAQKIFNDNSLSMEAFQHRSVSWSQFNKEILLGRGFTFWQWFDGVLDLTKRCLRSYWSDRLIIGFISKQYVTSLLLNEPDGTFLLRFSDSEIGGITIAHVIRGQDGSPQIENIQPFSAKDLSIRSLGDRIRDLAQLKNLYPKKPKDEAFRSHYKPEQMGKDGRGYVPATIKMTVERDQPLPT
Summary of the method: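 Competitive FP binding: recombinant STAT6 (W123-T658) at 250 nM, labeled phosphotyrosine peptide at 2 nM, compounds at 1% DMSO, 45 min at RT before reading. IC50 values were obtained from nonlinear regression of mP versus log concentration.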

[2] = target: T2, Recombinant STAT3 protein (STAT3 (G127-I722)) (Homo sapiens, UniProt P40763); test: STAT3 Fluorescence Polarization (FP) Assay; assay type: binding; conditions: STAT3 (G127-I722) 25 nM, probe 5-FAM-GpYLPQTV-NH2 2 nM, 45-minute incubation; read-out: STAT3 (FP assay IC50 class)
T2 construct: Recombinant STAT3 protein (STAT3 (G127-I722))
Summary of the method: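 Read-out is fluorescence polarization (mP) after 45 min at room temperature, with IC50 fitted by nonlinear regression against log compound concentration. Mixture: 25 nM STAT3 (G127-I722), 2 nM 5-FAM-GpYLPQTV-NH2 phosphopeptide, 10 mM HEPES pH 7.4 buffer, 1% DMSO.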

T2 sequence (P40763 127-722): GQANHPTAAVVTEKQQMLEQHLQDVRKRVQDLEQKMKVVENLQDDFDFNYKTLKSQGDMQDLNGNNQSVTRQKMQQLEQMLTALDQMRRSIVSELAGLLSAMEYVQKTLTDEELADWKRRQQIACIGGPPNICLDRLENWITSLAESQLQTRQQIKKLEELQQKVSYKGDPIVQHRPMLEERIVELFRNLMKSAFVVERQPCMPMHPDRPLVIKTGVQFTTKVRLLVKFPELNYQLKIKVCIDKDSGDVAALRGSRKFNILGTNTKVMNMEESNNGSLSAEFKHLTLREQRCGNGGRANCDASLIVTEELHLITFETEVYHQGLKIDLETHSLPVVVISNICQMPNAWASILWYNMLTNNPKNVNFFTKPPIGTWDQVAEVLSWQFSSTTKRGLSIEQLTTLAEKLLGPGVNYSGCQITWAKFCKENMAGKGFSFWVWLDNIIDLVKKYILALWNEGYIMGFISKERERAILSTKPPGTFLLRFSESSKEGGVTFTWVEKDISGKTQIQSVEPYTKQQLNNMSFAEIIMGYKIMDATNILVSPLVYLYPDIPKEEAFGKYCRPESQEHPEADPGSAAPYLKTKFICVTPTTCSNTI

Molecule C[C@H]1COCCN1c1ccncc1C1CN(C(=O)[C@@H]2CC[C@@H]3CCC[C@H](NC(=O)c4cc5cc(CP(=O)(O)O)ccc5s4)C(=O)N32)C1 [Compound 679, ((2-(((3S,6S,9aS)-3-(3-(4-((S)-3-methylmorpholino)pyridin-3-yl)azetidine-1-carbonyl)-5-oxooctahydro-1H-pyrrolo[1,2-a]azepin-6-yl)carbamoyl)benzo [b]thiophen-5-yl)methyl) phosphonic acid] has a pIC50 [1] of 4.52 to 5.52 and a pIC50 [2] greater than 7.00.
N#CC1CN(c2ccncc2C2CN(C(=O)[C@@H]3CC[C@@H]4CCC[C@H](NC(=O)c5cc6cc(CP(=O)(O)O)ccc6s5)C(=O)N43)C2)C1 [Compound 680, ((2-(((3S,6S,9aS)-3-(3-(4-(3-cyanoazetidin-1-yl)pyridin-3-yl)azetidine-1-carbonyl)-5-oxooctahydro-1H-pyrrolo[1,2-a]azepin-6-yl)carbamoyl)benzo [b]thiophen-5-yl)methyl) phosphonic acid] gave a pIC50 [1] of 4.52 to 5.52 and a pIC50 [2] greater than 7.00.
Molecule O=C(N[C@H]1CCC[C@H]2CC[C@@H](C(=O)N3CC(c4cncnc4N4CCC4)C3)N2C1=O)c1cc2cc(CP(=O)(O)O)ccc2s1 [Compound 681, ((2-(((3S,6S,9aS)-3-(3-(4-(azetidin-1-yl)pyrimidin-5-yl)azetidine-1-carbonyl)-5-oxooctahydro-1H-pyrrolo[1,2-a]azepin-6-yl)carbamoyl)benzo [b]thiophen-5-yl)methyl) phosphonic acid] has a pIC50 [1] of 4.52 to 5.52 and a pIC50 [2] greater than 7.00.
Molecule COc1c(Cl)cncc1C1CN(C(=O)[C@@H]2CC[C@@H]3CCC[C@H](NC(=O)c4cc5cc(C(F)P(=O)(O)O)ccc5s4)C(=O)N32)C1 (stereo partly drawn) [Compound 682, ((2-(((3S,6S,9aS)-3-(3-(5-chloro-4-methoxypyridin-3-yl)azetidine-1-carbonyl)-5-oxooctahydro-1H-pyrrolo[1,2-a]azepin-6-yl)carbamoyl)benzo [b]thiophen-5-yl)fluoromethyl) phosphonic acid] has a pIC50 [1] of 4.52 to 5.52 and a pIC50 [2] of 6.00 to 7.00.
In the case of O=C(N[C@H]1CCC[C@H]2CC[C@@H](C(=O)N3CC(c4cnccc4N4C[C@@H]5C[C@H]4CO5)C3)N2C1=O)c1cc2cc(C(F)P(=O)(O)O)ccc2s1 (stereo partly drawn) [Compound 683, ((2-(((3S,6S,9aS)-3-(3-(4-((1S,4S)-2-oxa-5-azabicyclo[2.2.1]heptan-5-yl)pyridin-3-yl)azetidine-1-carbonyl)-5-oxooctahydro-1H-pyrrolo[1,2-a]azepin-6-yl)carbamoyl)benzo [b]thiophen-5-yl)fluoromethyl) phosphonic acid], the pIC50 [1] was 4.52 to 5.52 and the pIC50 [2] was greater than 7.00.
Work on CO[C@H]1CCN(c2ccncc2C2CN(C(=O)[C@@H]3CC[C@@H]4CCC[C@H](NC(=O)c5cc6cc(CP(=O)(O)O)ccc6s5)C(=O)N43)C2)C1 [Compound 686, ((2-(((3S,6S,9aS)-3-(3-(4-((S)-3-methoxypyrrolidin-1-yl)pyridin-3-yl)azetidine-1-carbonyl)-5-oxooctahydro-1H-pyrrolo[1,2-a]azepin-6-yl)carbamoyl)benzo [b]thiophen-5-yl)methyl) phosphonic acid] yielded a pIC50 [1] of 4.52 to 5.52 and a pIC50 [2] greater than 7.00.
Molecule O=C(N[C@H]1CCC[C@H]2CC[C@@H](C(=O)N3CC(c4cnccc4N4CC[C@@H](F)C4)C3)N2C1=O)c1cc2cc(CP(=O)(O)O)ccc2s1 [Compound 687, ((2-(((3S,6S,9aS)-3-(3-(4-((R)-3-fluoropyrrolidin-1-yl)pyridin-3-yl)azetidine-1-carbonyl)-5-oxooctahydro-1H-pyrrolo[1,2-a]azepin-6-yl)carbamoyl)benzo [b]thiophen-5-yl)methyl) phosphonic acid] has a pIC50 [1] of 4.52 to 5.52 and a pIC50 [2] greater than 7.00.
CO[C@@H]1CCN(c2ccncc2C2CN(C(=O)[C@@H]3CC[C@@H]4CCC[C@H](NC(=O)c5cc6cc(CP(=O)(O)O)ccc6s5)C(=O)N43)C2)C1 [Compound 688, ((2-(((3S,6S,9aS)-3-(3-(4-((R)-3-methoxypyrrolidin-1-yl)pyridin-3-yl)azetidine-1-carbonyl)-5-oxooctahydro-1H-pyrrolo[1,2-a]azepin-6-yl)carbamoyl)benzo [b]thiophen-5-yl)methyl) phosphonic acid] gave a pIC50 [1] of 4.52 to 5.52 and a pIC50 [2] greater than 7.00.
In the case of O=C(N[C@H]1CCC[C@H]2CC[C@@H](C(=O)N3CC(c4cnccc4N4CC(C(F)F)C4)C3)N2C1=O)c1cc2cc(CP(=O)(O)O)ccc2s1 [Compound 691, ((2-(((3S,6S,9aS)-3-(3-(4-(3-(difluoromethyl)azetidin-1-yl)pyridin-3-yl)azetidine-1-carbonyl)-5-oxooctahydro-1H-pyrrolo[1,2-a]azepin-6-yl)carbamoyl)benzo [b]thiophen-5-yl)methyl) phosphonic acid], the pIC50 [1] was 4.52 to 5.52 and the pIC50 [2] was greater than 7.00.
Work on O=C(N[C@H]1CCC[C@H]2CC[C@@H](C(=O)N3CC(c4cnccc4N4CC(C(F)(F)F)C4)C3)N2C1=O)c1cc2cc(CP(=O)(O)O)ccc2s1 [Compound 692, ((2-(((3S,6S,9aS)-5-oxo-3-(3-(4-(3-(trifluoromethyl)azetidin-1-yl)pyridin-3-yl)azetidine-1-carbonyl)octahydro-1H-pyrrolo[1,2-a]azepin-6-yl)carbamoyl)benzo [b]thiophen-5-yl)methyl) phosphonic acid] yielded a pIC50 [1] of 4.52 to 5.52 and a pIC50 [2] greater than 7.00.
In the case of CN(C)c1cccnc1C1CN(C(=O)[C@@H]2CC[C@@H]3CCC[C@H](NC(=O)c4cc5cc(C(F)P(=O)(O)O)ccc5s4)C(=O)N32)C1 (stereo partly drawn) [Compound 693, ((2-(((3S,6S,9aS)-3-(3-(3-(dimethylamino)pyridin-2-yl)azetidine-1-carbonyl)-5-oxooctahydro-1H-pyrrolo[1,2-a]azepin-6-yl)carbamoyl)benzo [b]thiophen-5-yl)fluoromethyl) phosphonic acid], the pIC50 [1] was 4.52 to 5.52 and the pIC50 [2] was 5.00 to 6.00.
Work on O=C(N[C@H]1CCC[C@H]2CC[C@@H](C(=O)N3CC(c4cnccc4N4C[C@H]5C[C@@H]4CO5)C3)N2C1=O)c1cc2cc(C(F)P(=O)(O)O)ccc2s1 (stereo partly drawn) [Compound 694, ((2-(((3S,6S,9aS)-3-(3-(4-((1R,4R)-2-oxa-5-azabicyclo[2.2.1]heptan-5-yl)pyridin-3-yl)azetidine-1-carbonyl)-5-oxooctahydro-1H-pyrrolo[1,2-a]azepin-6-yl)carbamoyl)benzo [b]thiophen-5-yl)fluoromethyl) phosphonic acid] yielded a pIC50 [1] of 5.52 to 6.52 and a pIC50 [2] greater than 7.00.
In the case of O=C(N[C@H]1CCC[C@H]2CC[C@@H](C(=O)N3CC(c4cnccc4OC4CCCC4)C3)N2C1=O)c1cc2cc(C(F)P(=O)(O)O)ccc2s1 (stereo partly drawn) [Compound 695, ((2-(((3S,6S,9aS)-3-(3-(4-(cyclopentyloxy)pyridin-3-yl)azetidine-1-carbonyl)-5-oxooctahydro-1H-pyrrolo[1,2-a]azepin-6-yl)carbamoyl)benzo [b]thiophen-5-yl)fluoromethyl) phosphonic acid], the pIC50 [1] was 4.52 to 5.52 and the pIC50 [2] was greater than 7.00.
With O=C(N[C@H]1CCC[C@H]2CC[C@@H](C(=O)N3CC(C4=CCOCC4)C3)N2C1=O)c1cc2cc(CP(=O)(O)O)ccc2s1 [Compound 697, ((2-(((3S,6S,9aS)-3-(3-(3,6-dihydro-2H-pyran-4-yl)azetidine-1-carbonyl)-5-oxooctahydro-1H-pyrrolo[1,2-a]azepin-6-yl)carbamoyl)benzo [b]thiophen-5-yl)methyl) phosphonic acid] the pIC50 [1] was 4.52 to 5.52 and the pIC50 [2] was 5.00 to 6.00.
O=C(N[C@H]1CCC[C@H]2CC[C@@H](C(=O)N3CC(c4cnccc4Oc4ccccc4)C3)N2C1=O)c1cc2cc(C(F)P(=O)(O)O)ccc2s1 (stereo partly drawn) [Compound 699, (fluoro(2-(((3S,6S,9aS)-5-oxo-3-(3-(4-phenoxypyridin-3-yl)azetidine-1-carbonyl)octahydro-1H-pyrrolo[1,2-a]azepin-6-yl)carbamoyl)benzo [b]thiophen-5-yl)methyl) phosphonic acid] showed a pIC50 [1] of 4.52 to 5.52 and a pIC50 [2] greater than 7.00.
With O=C(N[C@H]1CCC[C@H]2CC[C@@H](C(=O)N3CC(c4cnccc4N4CC5(COC5)C4)C3)N2C1=O)c1cc2cc(CP(=O)(O)O)ccc2s1 [Compound 704, ((2-(((3S,6S,9aS)-3-(3-(4-(2-oxa-6-azaspiro[3.3]heptan-6-yl)pyridin-3-yl)azetidine-1-carbonyl)-5-oxooctahydro-1H-pyrrolo[1,2-a]azepin-6-yl)carbamoyl)benzo [b]thiophen-5-yl)methyl) phosphonic acid] the pIC50 [1] was 4.52 to 5.52 and the pIC50 [2] was greater than 7.00.
O=C(N[C@H]1CCC[C@H]2CC[C@@H](C(=O)N3CC(c4cnccc4OCc4ccncc4)C3)N2C1=O)c1cc2cc(C(F)P(=O)(O)O)ccc2s1 (stereo partly drawn) [Compound 705, (fluoro(2-(((3S,6S,9aS)-5-oxo-3-(3-(4-(pyridin-4-ylmethoxy)pyridin-3-yl)azetidine-1-carbonyl)octahydro-1H-pyrrolo[1,2-a]azepin-6-yl)carbamoyl)benzo [b]thiophen-5-yl)methyl) phosphonic acid] showed a pIC50 [1] of 4.52 to 5.52 and a pIC50 [2] greater than 7.00.
